Results: patent publication US4906661A, “Esters of aryloxypropanolamine derivatives” (E. I. Du Pont de Nemours and Company, priority 1989, dated 1990)
“And” between values parts separate entries of the source, which are not always exact repeats. Identical values can stand only once. Counter-ions that a name gives are not always drawn. Like-named read-outs stand apart in the source and are kept apart here. Blank lines part the entries; values can stand above or below the molecule they belong to.

Key:
[1] = molecular target: β1 receptors, guinea pig right atria (Cavia porcellus, UniProt H0W3H1); test: cell-based
Sequence of β1 receptors, guinea pig right atria (H0W3H1 1-470): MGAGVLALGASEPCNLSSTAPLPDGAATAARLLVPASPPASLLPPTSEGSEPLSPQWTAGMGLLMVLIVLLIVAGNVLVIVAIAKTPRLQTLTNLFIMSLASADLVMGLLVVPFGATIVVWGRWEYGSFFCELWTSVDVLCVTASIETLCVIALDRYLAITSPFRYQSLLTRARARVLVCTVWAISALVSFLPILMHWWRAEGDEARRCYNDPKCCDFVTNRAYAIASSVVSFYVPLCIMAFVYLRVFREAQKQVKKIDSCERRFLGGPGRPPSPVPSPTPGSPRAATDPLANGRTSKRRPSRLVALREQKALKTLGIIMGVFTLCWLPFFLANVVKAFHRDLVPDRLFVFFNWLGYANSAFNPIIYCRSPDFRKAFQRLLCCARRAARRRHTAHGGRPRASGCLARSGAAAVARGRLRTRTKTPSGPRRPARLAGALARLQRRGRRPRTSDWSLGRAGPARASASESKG
Experimental: Each tissue was suspended between a fixed glass rod and a Statham Universal Transducer connected to a Beckman recorder. Atria were allowed to beat spontaneously under a loading tension of approximately 0.5 gm. Intrinsic depressant or stimulant activity was determined for each compound by progressively increasing concentrations in the tissue baths at 60-minute intervals. Tissues were not washed between increments. The maximum concentration showing little or no cardiodepressant activity was chosen for blockade experiments. Changes in rate in response to isoproterenol, a standard β-receptor agonist, were measured in the absence and presence of test compounds. Spiral strips of guinea pig trachea were suspended under 5 gm resting tension and incubated with phentolamine, tropolone and cocaine. Active tension was generated by addition of carbachol (3.0×10^-7 M) and decreases in tension in response to isoproterenol were quantitated. Cumulative concentration-response curves were produced with isoproterenol both before and after 60-minute incubation of test compounds with atria and trachea. […] The blocking potency of test compounds was estimated by computing pA2 values (-log KB) by the method of Furchgott, the Pharmacological Differentiation of Adrenergic Receptors, Ann. […] The degree of cardioselectivity was estimated from the ratio, KB trachea/KB atria (10^(pA2 atria-pA2 trachea)). A ratio greater than one indicates cardioselectivity. Test drugs were dissolved in distilled water and added to the bath (30 ml) in a volume of 10 or 100 μl.

[2] = topical (eye), Physicians' Desk Reference 1981; cited from earlier work
[3] = molecular target: β2 receptors, guinea pig trachea (Cavia porcellus, UniProt Q8K4Z4); test: cell-based
Sequence of β2 receptors, guinea pig trachea (Q8K4Z4 whole entry): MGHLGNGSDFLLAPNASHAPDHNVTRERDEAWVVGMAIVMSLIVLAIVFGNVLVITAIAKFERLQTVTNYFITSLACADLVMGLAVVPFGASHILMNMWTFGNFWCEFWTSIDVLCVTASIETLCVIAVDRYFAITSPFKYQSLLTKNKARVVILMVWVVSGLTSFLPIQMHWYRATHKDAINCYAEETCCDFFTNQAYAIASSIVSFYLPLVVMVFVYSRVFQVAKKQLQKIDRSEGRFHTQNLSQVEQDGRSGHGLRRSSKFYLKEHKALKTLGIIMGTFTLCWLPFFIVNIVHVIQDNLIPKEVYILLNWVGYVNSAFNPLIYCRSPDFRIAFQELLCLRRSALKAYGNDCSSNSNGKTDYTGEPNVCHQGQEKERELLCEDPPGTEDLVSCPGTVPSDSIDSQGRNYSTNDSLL
Experimental: Each tissue was suspended between a fixed glass rod and a Statham Universal Transducer connected to a Beckman recorder. Atria were allowed to beat spontaneously under a loading tension of approximately 0.5 gm. Intrinsic depressant or stimulant activity was determined for each compound by progressively increasing concentrations in the tissue baths at 60-minute intervals. Tissues were not washed between increments. […] Changes in rate in response to isoproterenol, a standard β-receptor agonist, were measured in the absence and presence of test compounds. Spiral strips of guinea pig trachea were suspended under 5 gm resting tension and incubated with phentolamine, tropolone and cocaine. Active tension was generated by addition of carbachol (3.0×10^-7 M) and decreases in tension in response to isoproterenol were quantitated. Cumulative concentration-response curves were produced with isoproterenol both before and after 60-minute incubation of test compounds with atria and trachea. […] The blocking potency of test compounds was estimated by computing pA2 values (-log KB) by the method of Furchgott, the Pharmacological Differentiation of Adrenergic Receptors, Ann. […] A ratio greater than one indicates cardioselectivity. Test drugs were dissolved in distilled water and added to the bath (30 ml) in a volume of 10 or 100 μl.

[4] = tested on: heart rate response to isoproterenol; test: Duration and potency of beta-blocking action in vivo, 3-hour infusion in anesthetized dogs, isoproterenol challenge; parameters: species or system dog; conditions: for Duration, time for 50% recovery from 50% blockade levels: Table IV, after infusion of drug, mean ± SEM; for Recovery Time 50%: 50% recovery from β-blockade after termination of infusion; for Recovery Time 80%: 80% recovery from β-blockade after termination of infusion; for % I, percent inhibition of heart rate response to isoproterenol: end of 3-hour infusion, isoproterenol 0.5 μg/kg
Experimental: The duration of β-blockade was determined In vivo using pentobarbital-anesthetized dogs instrumented for measurement of heart rate using a Beckman cardiotachometer triggered electronically by a phasic aortic blood pressure signal. Both vagus nerves were served in the cervical region and the animals were mechanically ventilated. The experimental design used employed a 3-hour infusion of test compound. Bolus doses of isoproterenol (0.5 μg/kg) were used to assess the degree of β-blockade and recovery from β-blockade after […] of the infusion. The doses were spaced at 10-minute intervals and were given before, during and following the infusion of test compounds. The infusion rate was adjusted so that at the end of the 3-hour infusion period the degree of isoproterenol inhibition averaged about 50% of control. Following termination of blocker infusion, percent recovery from β-blockade was computed and the time associated with 80% recovery estimated.
^c Time in minutes for 50% recovery from 50% blockade levels after 3
Infusions of drug. Number of experiments is equal to or greater than thre
for each compound unless noted otherwise. Tabulated data are mean values
^c The betablocking activities were evaluated Invivo in a canine
model. The betablocker was infused in the animal for 3 hours with the dos
adjusted to give approximately 50%. blockage of the Isoproternolinduced
tachycardia. The infusion was then terminated and the time required for
80% recovery of blockade was recorded as duration of action of the
compound. The amount of drug infused during the 3 hours was averaged and
expressed as potency in ug/kg/min.

[5] = tested on: β-adrenergic receptors, guinea pig trachea vs right atria; test: Cardioselectivity, KB trachea/KB atria; type: cell-based; conditions: 10^(pA2 atria-pA2 trachea); ratio greater than one indicates cardioselectivity
Experimental: Each tissue was suspended between a fixed glass rod and a Statham Universal Transducer connected to a Beckman recorder. Atria were allowed to beat spontaneously under a loading tension of approximately 0.5 gm. Intrinsic depressant or stimulant activity was determined for each compound by progressively increasing concentrations in the tissue baths at 60-minute intervals. Tissues were not washed between increments. The maximum concentration showing little or no cardiodepressant activity was chosen for blockade experiments. Changes in rate in response to isoproterenol, a standard β-receptor agonist, were measured in the absence and presence of test compounds. Spiral strips of guinea pig trachea were suspended under 5 gm resting tension and incubated with phentolamine, tropolone and cocaine. Active tension was generated by addition of carbachol (3.0×10^-7 M) and decreases in tension in response to isoproterenol were quantitated. Cumulative concentration-response curves were produced with isoproterenol both before and after 60-minute incubation of test compounds with atria and trachea. […] The degree of cardioselectivity was estimated from the ratio, KB trachea/KB atria (10^(pA2 atria-pA2 trachea)). A ratio greater than one indicates cardioselectivity. Test drugs were dissolved in distilled water and added to the bath (30 ml) in a volume of 10 or 100 μl.

[6] = Half-life in dog liver homogenate (procedure D); type: in vitro ADME; conditions: 37° C., read-out: T1/2 dog liver homogenate
Experimental: (§1) In each experiment, 1 ml of a solution containing 50 μg of the test compound was added to 1 ml of whole blood or 1 ml of a 33% (w/v) liver homogenate. The samples were incubated in a Dubnoff shaking metabolic incubator for 2.5, 5.0, 10.0, 20.0, 30.0 and 60.0 minutes at 37° C. At the designated time periods, the test mixtures were removed from the incubator and transferred to a 0° C. ice bath. Acetonitrile (2 ml) was immediately added and the mixtures were mixed to stop enzymatic hydrolysis. Zero time samples were prepared by adding 2 ml of acetonitrile to denature the proteins prior to addition of the test compounds. After centrifugation to sediment denatured proteins, 2 ml of the supernatant was removed and analyzed by high pressure liquid chromatography, using a mobile phase of 60% acetonitrile/40% 0.05 M sodium phosphate buffer (pH 6.6), a U.V. detector and Waters μ Bondapak Phenyl column.
(§2) The half life of each test compound was determined graphically by plotting the decrease in concentrations as a function of time.

[7] = Half-life in dog whole blood (procedure D); type: in vitro ADME; conditions: 37° C., read-out: T1/2 dog blood
Experimental: as §1, §2

[8] = Table VI, read-out: pA2 Atria (converted)
[9] = Table V, guinea pig right atria (B1), read-out: In Vitro pA2 Atria (converted)
[10] = Table IV, mean, n ≥ 2, range ≤ ± 0.2 units, read-out: pA2 Trachea (converted)
[11] = Table IV, mean, n ≥ 2, range ≤ ± 0.2 units, read-out: pA2 Atria (converted)
[12] = Table I, guinea pig trachea, vs isoproterenol, -log KB, read-out: PA2 Trachea (converted)
[13] = Table I, guinea pig right atria, vs isoproterenol, -log KB, read-out: PA2 Rt. Atria (converted)
[14] = Table IV, mean, n ≥ 2, range ≤ ± 0.2 units

Kb [1, 8]: 79.4 nM
Compound: CCOC(=O)CCc1nsnc1OCC(O)CNC(C)(C)CNC(C)=O (stereo not shown) [No. 5 (Table VI)]

Kb [1, 9]: 100 nM
Compound: CCOC(=O)CCc1nsnc1OCC(O)CNCCNC(=O)C(C)C (stereo not shown) [No. 1 (Table V)]

Kb [3, 10]: 1260 nM
Kb [1, 11]: 31.6 nM
Compound: CCOC(=O)CCc1ccc(OCC(O)CNCCNC(=O)Cc2ccccc2)cc1 (stereo not shown) [No. 12 (Table IV)]
Duration, time for 50% recovery from 50% blockade levels [4]: 6 ± 4 min

Kb [3, 10]: 316 nM
Kb [1, 11]: 501 nM
Compound: CCOC(=O)CCc1ccc(OCC(O)CNCCNC(C)=O)cc1 (stereo not shown) [No. 9 (Table IV)]
Duration, time for 50% recovery from 50% blockade levels [4]: 10 ± 4 min

Kb [3, 10]: 200 nM
Kb [1, 11]: 794 nM
Compound: CCOC(=O)CCc1ccc(OCC(O)CNC(C)(C)CNC(=O)OCC)cc1 (stereo not shown) [No. 14 (Table IV)]

pA2 Trachea [3, 14]: 6.5
Kb [3, 10]: 316 nM
pA2 Atria [1, 14]: 5.8
Kb [1, 11]: 1580 nM
Compound: CCOC(=O)CCc1ccc(OCC(O)CNC(C)(C)CNS(=O)(=O)N(C)C)cc1 (stereo not shown) [No. 15 (Table IV)]

Kb [3, 10]: 398 nM
Kb [1, 11]: 1000 nM
Compound: CCOC(=O)CCc1ccc(OCC(O)CNC(C)(C)CNC(N)=O)cc1 (stereo not shown) [No. 13 (Table IV)]
Duration, time for 50% recovery from 50% blockade levels [4]: 12 ± 4 min

Kb [1, 8]: 79.4 nM
Compound: CCOC(=O)CCc1nsnc1OCC(O)CNCCNC(=O)Cc1ccccc1 (stereo not shown) [No. 6 (Table VI)]

pA2 Trachea [3, 14]: 5.7
pA2 Atria [1, 14]: 5.8
Compound: CCOC(=O)CCc1ccc(OCC(O)CNCCNS(=O)(=O)N(C)C)cc1 (stereo not shown) [No. 16 (Table IV)]

Kb [3, 10]: 398 nM
Kb [1, 11]: 794 nM
Compound: CCOC(=O)CCc1ccc(OCC(O)CNCCNC(=O)C(C)C)cc1 (stereo not shown) [No. 10 (Table IV)]
Duration, time for 50% recovery from 50% blockade levels [4]: 6 ± 3 min

Kb [3, 10]: 251 nM
Kb [1, 11]: 501 nM
Compound: CCOC(=O)CCc1ccc(OCC(O)CNC(C)(C)CNS(=O)(=O)c2ccccc2)cc1 (stereo not shown) [No. 18 (Table IV)]

Kb [1, 8]: 501 nM
Compound: CCOC(=O)CCc1nsnc1OCC(O)CNCCNC(C)=O (stereo not shown) [No. 3 (Table VI)]

Kb [3, 10]: 20 nM
Kb [1, 11]: 63.1 nM
Compound: CCOC(=O)CCc1ccccc1OCC(O)CNCCNC(=O)C(C)C (stereo not shown) [Example 6]

Kb [3, 10]: 398 nM
Compound: CCOC(=O)CCc1ccc(OCC(O)CNC(C)(C)CNC(=O)C2CCCCC2)cc1 (stereo not shown) [No. 11 (Table IV)]

Kb [3, 10]: 200 nM
Kb [1, 11]: 15.8 nM
Compound: CCOC(=O)CCc1ccc(OCC(O)CNC(C)(C)CNC(=O)N2CCOCC2)cc1 (stereo not shown) [No. 19 (Table IV)]
Duration, time for 50% recovery from 50% blockade levels [4]: 21 ± 4 min

Kb [3, 10]: 6310 nM
Kb [1, 11]: 1000 nM
Compound: CCOC(=O)CCc1ccc(OCC(O)CNCCNS(=O)(=O)c2ccc(C)cc2)cc1 (stereo not shown) [No. 17 (Table IV)]

Kb [3, 10]: 20 nM
Kb [1, 11]: 3.16 nM
Compound: CCOC(=O)c1ccccc1OCC(O)CNCCNC(=O)C(C)C (stereo not shown) [Example 1]

Kb [1, 8]: 100 nM
Compound: CCOC(=O)CCc1nsnc1OCC(O)CNC(C)CNC(C)=O (stereo not shown) [No. 4 (Table VI)]

Continued, molecule first:

Compound: CC(C)(C)NC[C@H](O)COc1nsnc1N1CCOCC1 [timolol maleate]
adverse reactions to the topical use [2]: bronchospasm and heart failure, as well as cardiac conduction defects

Compound: COC(=O)c1ccccc1OCC(O)CNCCNS(=O)(=O)c1ccc(C)cc1.O=C(O)C(=O)O (stereo not shown) [Example VII, Methyl 2-[2-Hydroxy-3-[N-[2-[N-(4-methylphenylsulfonyl)amino]ethyl]amino]propoxy]benzoate Oxalate]
Cardioselectivity KB (Trachea)/KB (Atria) [5]: 2
Kb [3, 12]: 79.4 nM
Kb [1, 13]: 158 nM

Compound: CC(C)NCC(O)COc1cccc2ccccc12 (stereo not shown) [Propranolol, reference compound]
Potency ([4]; Table II, 3-hour infusion, dog): 0.225 mg/kg/180 min
Recovery Time 50% ([4]; Table II): > 60 min
Recovery Time 80% ([4]; Table II): > 60 min
% I, percent inhibition of heart rate response to isoproterenol ([4]; Table II): 67 ± 6%
Duration, time for 50% recovery from 50% blockade levels [4]: > 60 min

Compound: COC(=O)c1ccccc1OCC(O)CNCCNC(=O)Nc1ccccc1 (stereo not shown) [Example IV, Methyl 2-[2-Hydroxy-3-[N-[2-[N-(phenylaminocarbonyl)amino]ethyl]amino]propoxy]benzoate]
Cardioselectivity KB (Trachea)/KB (Atria) [5]: 25
Kb [3, 12]: 200 nM
Kb [1, 13]: 7.94 nM
Recovery Time 50% ([4]; Table II): > 60 min
Recovery Time 80% ([4]; Table II): > 60 min
% I, percent inhibition of heart rate response to isoproterenol ([4]; Table II): 72 ± 3%
half-life [6]: > 3 h
half-life [7]: > 3 h

Compound: CCOC(=O)c1ccccc1OCC(O)CNCCNS(=O)(=O)c1ccc(C)cc1 (stereo not shown) [Example 5]
Kb [3, 10]: 25.1 nM
Kb [1, 11]: 158 nM

Compound: CCOC(=O)CCc1nsnc1OCC(O)CNC(C)(C)CNC(=O)OCC (stereo not shown) [No. 1 (Table VI)]
Kb [1, 8]: 63.1 nM

Compound: CCOC(=O)NCC(C)(C)NCC(O)COc1ccccc1C(=O)OCC (stereo not shown) [Example 2]
Kb [3, 10]: 10 nM
Kb [1, 11]: 5.01 nM

Compound: COC(=O)c1ccccc1OCC(O)CNC(C)(C)CNC(=O)N1CCOCC1 (stereo not shown) [Example VI, Methyl 2-[2-Hydroxy-3-[N-[1,1-dimethyl-2-(1-morpholinocarbonylamino)ethyl]amino]propoxy]benzoate Oxalate]
Kb [1, 13]: < 1 nM
Recovery Time 50% ([4]; Table II): > 60 min
Recovery Time 80% ([4]; Table II): > 60 min
% I, percent inhibition of heart rate response to isoproterenol ([4]; Table II): 93% and 89%

Compound: CCOC(=O)c1ccccc1OCC(O)CNCCNS(=O)(=O)N(C)C (stereo not shown) [Example 4]
Kb [3, 10]: 20 nM
Kb [1, 11]: 39.8 nM

Compound: CCOC(=O)CCc1nsnc1OCC(O)CNC(C)(C)CNC(=O)C(C)C (stereo not shown) [No. 2 (Table V)]
Kb [1, 9]: 6.31 nM

Compound: COC(=O)c1ccccc1OCC(O)CNC(C)(C)CNS(=O)(=O)c1ccccc1 (stereo not shown) [VIII, Methyl 2-[2-Hydroxy-3-[N-[1,1-dimethyl-2-(phenylsulfonylamino)ethyl]amino]proxy]benzoate Oxalate]
Kb [3, 12]: 1.58 nM
Recovery Time 50% ([4]; Table II): 26 ± 6 min
Recovery Time 80% ([4]; Table II): > 60 min
% I, percent inhibition of heart rate response to isoproterenol ([4]; Table II): 74%

Compound: CCOC(=O)CCc1nsnc1OCC(O)CNCCNS(=O)(=O)N1CCOCC1 (stereo not shown) [No. 7 (Table VI)]
Kb [1, 8]: 794 nM

Compound: CCOC(=O)CCc1nsnc1OCC(O)CNC(C)(C)CNC(N)=O (stereo not shown) [No. 2 (Table VI)]
Kb [1, 8]: 39.8 nM

Compound: CC(C)(C)NC[C@H](O)COc1nsnc1N1CCOCC1 [Timolol, reference compound]
Duration, time for 50% recovery from 50% blockade levels [4]: > 60 min
